Experimental findings from EP0382875A1, “Dispersant for biologically active peptide” (Matuo, Yuhsy, priority 1989, dated 1990) are described below.

A short description of data set [1]: Solubility in water and organic solvents. The class given is physicochemical. From the text:
That is, CHAPS or CHAPSO can be removed by utilizing difference in solubility in organic solvents. CHAPS or CHAPSO is soluble in water, methanol and dimethylsulfoxide but insoluble in other solvents (acetone, acetonitrile, ether, chloroform, 2-methyl-1-propanol, N,N-dimethylformamide, isoamly alcohol, ethanol, hexane, xylene, petroleum ether, benzene, n-heptane, toluene). Utilizing the difference in solubility, CHAPS or CHAPSO can easily be removed.

In data set [2] the test system is BALB/C3T3 cells. The data set can be described thus: Thermal stability of FGF at 50°C with or without CHAPS (FGF activity). The class given is physicochemical, mouse. The following applies: FGF 5 µg/ml, 1% CHAPS, 50°C for 1 hour. The method, then:
(§1) Next, examples of the present invention are shown. DNA synthesis activity or FGF activity of samples was determined by the method shown in Example 1 and expressed by cpm (counts per minute) x 10⁻⁴/well/3h.
(§2) BALB/C3T3 cells, a kind of fibroblasts established from a mouse fetus were suspended in 3% bovine serum-containing DME medium (DME-3% CS) at a concentration of 2 x 10⁴/ml. One milliliter of the suspension was taken and cultured at 37°C for 5 hours on a 24 well tissue culture dish. Then, the medium was replaced by 1 ml of DME-1% CS followed by culturing at 37°C for 48 hours. A sample (2 to 20 µl) was added thereto, followed by culturing for further 16 hours.
(§3) Then, 10 µl of 2 x 10⁻⁵ M[³H]thymidine (40 µCi/ml) was supplemented. After culturing for 3 hours, radioactivity incorporated into DNA fraction was measured. That is, after the medium was removed, cells were rinsed with 1 ml of PBS (phosphate-buffered saline) once and 3 times with 1 ml of cold 10% TCA (trichloroacetic acid). Then, 1 ml of 0.5 M NaOH was added thereto. After allowing to stand at room temperature for 15 minutes, the mixture was neutralized with 5 M HCl. Scintillator cocktail, 6 ml, was added thereto to measure the radioactivity.
After commercially available FGF (5 µg/ml) added with 1% CHAPS or added with no CHAPS was allowed to stand at 50°C for 1 hour, stability of FGF was examined. […]

For another data set, the system named is BALB/C3T3 fibroblasts. The data set can be described thus: Cytotoxicity of dispersants: DNA synthesis activity ([3H]thymidine incorporation) in cultured fibroblasts. The class given is cell-based, mouse. Conditions: added to medium at 1 x 10⁻⁴ to 1 x 10⁻¹%, culture 19 hours; compared with NOG, SB12, Triton X-100, NP-40. Here is the method: Upon culturing BALB/C3T3 fibroblasts in bovine serum-supplemented medium on a 24 well plate, CHAPS, NOG (1-O-n-octyl-β-D-glucopyranoside), SB12 (3-(dodecylmethylammonio)-1-propane sulfonate: sulfobetaine 12), Triton X-100 and NP-40 (Nonidet P-40) were added to the medium at concentrations of 1 x l0⁻⁴ to 1 x 10⁻¹%.
as §2, §3

Data set [3] is described as follows: Heparin-5PW HPLC of extract from BPH tissues with or without CHAPS (elution of FGF activity). Format: physicochemical, human. Conditions: Heparin-5PW HPLC of BPH tissue extract, 0.1% CHAPS versus no CHAPS. The text has this: An extract from human benign prostatic hypertrophy (BPH) tissues was subjected to Heparin-5PW HPLC without adding any CHAPS thereto.
An extract from BPH tissues was subjected to Heparin-5PW HPLC in the presence of 0.1% CHAPS thereto.

The test system of data set [4] is BALB/C3T3 cells. The data set can be described thus: Adsorption of FGF to containers of different kinds, with or without CHAPS (FGF activity after storage). The class given is physicochemical, mouse. Conditions: addition of 0.1% CHAPS; FGF 0.5 µg/ml PBS; 4°C for 2 days. The method, then: as §1, §2
Then, 10 µl of 2 x 10⁻⁵ M[³H]thymidine (40 µCi/ml) was supplemented. After culturing for 3 hours, radioactivity incorporated into DNA fraction was measured. That is, after the medium was removed, cells were rinsed with 1 ml of PBS (phosphate-buffered saline) once and 3 times with 1 ml of cold 10% TCA (trichloroacetic acid). Then, 1 ml of 0.5 M NaOH was added thereto. […] Scintillator cocktail, 6 ml, was added thereto to measure the radioactivity.
Commercially available FGF (fibroblast growth factor) was charged in containers shown in Table 1, respectively, in 0.5 µg/ml PBS; the containers were charged with or without 0.1% CHAPS. After storing at 4°C for 2 days, FGF activity in each container was measured.

[5] abbreviates: in other solvents (acetone, acetonitrile, ether, chloroform, 2-methyl-1-propanol, N,N-dimethylformamide, isoamyl alcohol, ethanol, hexane, xylene, petroleum ether, benzene, n-heptane, toluene).
Setting [6] is: in water, methanol and dimethylsulfoxide.

Molecules are shown by their SMILES.

For the molecule `C[C@H](CCC(=O)NCCC[N+](C)(C)CC(O)CS(=O)(=O)[O-])[C@H]1CC[C@H]2[C@@H]3[C@H](O)C[C@@H]4C[C@H](O)CC[C@]4(C)[C@H]3C[C@H](O)[C@]12C` (some centres unmarked) [CHAPSO, 3-(3-cholamidopropyl)dimethylammonio]-2-hydroxy-1-propane sulfonate], the solubility result in data set [1] (setting [5]) is given as “insoluble”; in data set [1] (setting [6]) it was “soluble”.
Turning to `C[C@H](CCC(=O)NCCC[N+](C)(C)CCCS(=O)(=O)[O-])[C@H]1CC[C@H]2[C@@H]3[C@H](O)C[C@@H]4C[C@H](O)CC[C@]4(C)[C@H]3C[C@H](O)[C@]12C` [CHAPS, 3-[(3-cholamidopropyl)dimethylammonio]-1-propane sulfonate], in the data set on BALB/C3T3 cells [2], the “effect on thermal instability of FGF” value was “stabilizing effect”. Also, the “cytotoxicity (DNA synthesis activity)” value in the data set with BALB/C3T3 fibroblasts is recorded as “least cytotoxicity among various surface active agents”. Moreover, the solubility result in data set [1] (setting [5]) is given as “insoluble”; in data set [1] (setting [6]) it was “soluble”. Moreover, the “adsorption of FGF onto carrier and device during chromatographies” value in data set [3] was “prevents adsorption of FGF onto a carrier and device”. Further, the “adsorption of FGF onto the containers” value in the data set on BALB/C3T3 cells [4] was “effectively prevented”.
